Results as given in US8877763B2, “Substituted pyridopyrimidine compounds and their use as FLT3 inhibitors” (Genosco, priority 2012, dated 2014).
Substitutions are numbered along the chain they refer to. Counter-ions that a name gives are not always drawn. Blank lines part the entries; values can stand above or below the molecule they belong to.

Assays:
[1] = system: MV4-11 cells expressing human FLT3-ITD; assay: Cell viability assay: inhibition of FLT3-ITD-positive cells (ATPLite); format: cell-based; conditions: 72 hour incubation
Method: Compounds of the invention were tested for cell viability effect on MV4-11 cells. For cell viability assay, MV4-11 cells expressing human FLT3-ITD were obtained from the American Type Culture Collection (ATCC, Manassas, Va.). This cell line was maintained with an Roswell Park Memorial Institute (RPMI) medium (HyClone™) containing 10 bovine calf serum (BCS; Hyclone™) supplemented iron. The MV4-11 cells were seeded at 2×10^4 cells in 96-well culture plates, and serially diluted compound was then added. After a 72 hour incubation period at 37° C., cell viability was measured using the ATPLite 1 step assay (Perkin-Elmer™) that is based on the quantification of ATP from viable cells. CellTiter Aqueous assay (Promega™) was also performed in parallel as an orthogonal assay. IC50 values were calculated using nonlinear regression and defined as the concentration needed for a 50 reduction in luminescence or absorbance treated versus untreated control cells (Prism™ Software).

JAK2 = target: T1, JAK2 (Homo sapiens, UniProt O60674); assay: Inhibition of enzymatic JAK2 kinase activity (Lance Ulight TR-FRET); format: biochemical
T1 construct: Truncated human FLT3 wildtype, mutant D835Y, and JAK2; purchased Carna Biosciences
Method: (§1) Compounds of the invention were initially diluted to 10 mM in 100% DMSO (CALBIOCHEM™) for storage and made into kinase buffer solution to create a compound concentration ranging from 1 uM and 10 uM. Serial dilutions of compounds of the invention were dispensed into a 96-well plate (GREINER BIOSCIENCES™) at 6 μL each.

FLT3 mutant D835Y = target: T2, FLT3 mutant D835Y (Homo sapiens, UniProt P36888, D835Y); assay: Inhibition of enzymatic FLT3 mutant D835Y kinase activity (Lance Ulight TR-FRET); format: biochemical
T2 construct: Truncated human FLT3 wildtype, mutant D835Y; purchased Carna Biosciences
T2 sequence (P36888 564-993 D835Y limits assumed): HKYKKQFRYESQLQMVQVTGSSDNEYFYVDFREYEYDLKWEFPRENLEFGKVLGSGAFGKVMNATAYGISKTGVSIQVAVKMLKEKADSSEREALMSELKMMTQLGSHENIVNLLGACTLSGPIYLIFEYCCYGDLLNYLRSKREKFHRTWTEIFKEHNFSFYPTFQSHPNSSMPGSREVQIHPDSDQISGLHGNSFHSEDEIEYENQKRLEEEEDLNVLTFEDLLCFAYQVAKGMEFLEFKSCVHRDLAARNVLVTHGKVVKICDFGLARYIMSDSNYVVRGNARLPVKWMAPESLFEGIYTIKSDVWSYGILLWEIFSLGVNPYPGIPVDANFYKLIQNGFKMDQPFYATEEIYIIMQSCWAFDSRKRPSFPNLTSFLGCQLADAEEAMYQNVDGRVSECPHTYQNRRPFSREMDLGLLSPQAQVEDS
Method: as §1

[2] = target: T3, Truncated human FLT3 wildtype (Homo sapiens, UniProt P36888); assay: Inhibition of enzymatic FLT3 wildtype kinase activity (Lance Ulight TR-FRET); format: biochemical
T3 construct: Truncated human FLT3 wildtype; purchased Carna Biosciences
T3 sequence (P36888 564-993 limits assumed): T2 sequence (P36888 564-993 D835Y limits assumed) with Y272D
Method: as §1

[3] = system: MV4-11 cell line of FLT3-ITD; assay: Xenograft mouse model using MV4-11 cell line; format: in vivo, Balb/C nude mice; conditions: for Means of Tumor Volume / Percent Tumor Regression (PTR %): 30 mg/kg every day
Method: Compounds of the invention were tested in xenograft mouse model using MV4-11 cell line of FLT3-ITD. All male animals of 6 weeks old Balb/C nude mice were housed in plastic cages (4˜6 mice/cage) containing corn cob and maintained in a pathogen-free facility (20˜25° C., 30˜70% humidity) with a 12 hour light:dark cycle. Tumor model was established by subcutaneous injection with MV4-11 cell suspension. When the average tumor volume reached approximately 400 mm^3 (˜5 weeks post tumor implantation), the tumor bearing-mice were assigned 2 groups (9 mice per each). The compound 238 treatment of 30 mg/kg every day was initiated and continue for 28 days. The vehicle 20% hydroxyl-β-cyclodextrin was used. Tumor volume was measured twice weekly. Where applicable, percent tumor regression (PTR) for each group will be calculated by the formula: PTR=100×(tumor volumeinitial−tumor volumefinal)/(tumor volumeinitial).

T1 sequence (O60674 826-1132 limits assumed): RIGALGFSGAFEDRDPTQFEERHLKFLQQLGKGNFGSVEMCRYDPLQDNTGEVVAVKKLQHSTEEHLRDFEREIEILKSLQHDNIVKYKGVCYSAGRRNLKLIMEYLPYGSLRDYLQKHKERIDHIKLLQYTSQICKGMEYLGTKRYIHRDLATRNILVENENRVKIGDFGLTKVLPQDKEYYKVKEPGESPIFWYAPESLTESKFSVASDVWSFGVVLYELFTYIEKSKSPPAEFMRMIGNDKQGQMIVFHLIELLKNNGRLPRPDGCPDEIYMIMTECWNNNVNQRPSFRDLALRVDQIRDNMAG

- IC50 ([1]; Homo sapiens, MV4-11, 72 h): 0.5 nM
Compound: CN1CCC(Nc2nc(Nc3ccc(OC4CCCC4)cc3)c3c(=O)[nH]cc(Br)c3n2)CC1 [Compound 237, 8-bromo-4-(4-(cyclopentyloxy)phenylamino)-2-(1-methylpiperidin-4-ylamino)pyrido[4,3-d]pyrimidin-5(6H)-one hydrochloride]

- IC50 (JAK2): 281 nM
Compound: CN1CCC(Nc2nc(Nc3ccc(Oc4ccccc4)cc3)c3c(=O)[nH]cc(Br)c3n2)CC1 [Compound 226, 8-Bromo-2-(1-methylpiperidin-4-ylamino)-4-(4-phenoxyphenylamino)pyrido[4,3-d]pyrimidin-5(6H)-one hydrochloride]

- IC50 (JAK2): 599 nM
- IC50 [1]: 0.5 nM
- IC50 (FLT3 mutant D835Y): 1.3 nM
- IC50 [2]: 1.2 nM
Compound: CN1CCC(Nc2nc(Nc3ccc(Oc4cccc(F)c4)cc3)c3c(=O)[nH]cc(Br)c3n2)CC1 [Compound 240, 8-bromo-4-((4-(3-fluorophenoxy)phenyl)amino)-2-((1-methylpiperidin-4-yl)amino) pyrido[4,3-d]pyrimidin-5(6H)-one]

- IC50 (JAK2): 260 nM
- IC50 ([1]; Homo sapiens, MV4-11, 72 h): 1.4 nM
- IC50 (FLT3 mutant D835Y): 1.7 nM
- IC50 [2]: 0.1 nM
Compound: CN1CCC(Nc2nc(Nc3cccc(Oc4ccccc4)c3)c3c(=O)[nH]cc(Br)c3n2)CC1 [Compound 246, 8-bromo-2-((1-methylpiperidin-4-yl)amino)-4-((3-phenoxyphenyl)amino)pyrido[4,3-d]pyrimidin-5(6H)-one]

- IC50 (JAK2): 129 nM
- IC50 [1]: 0.8 nM
- IC50 (FLT3 mutant D835Y): 0.6 nM
- IC50 [2]: 0.1 nM
Compound: CN1CCC(Nc2nc(Nc3ccc(OC4CCCCC4)cc3)c3c(=O)[nH]cc(Br)c3n2)CC1 [Compound 228, 8-bromo-4-((4-(cyclohexyloxy)phenyl)amino)-2-((1-methylpiperidin-4-yl)amino)pyrido[4,3-d]pyrimidin-5(6H)-one]

- IC50 (JAK2): 290 nM
- IC50 ([1]; Homo sapiens, MV4-11, 72 h): 2.4 nM
- IC50 (FLT3 mutant D835Y): 0.4 nM
- IC50 [2]: 0.1 nM
Compound: CN1CCC(Nc2nc(Nc3ccc(OCc4ccccc4)cc3)c3c(=O)[nH]cc(Br)c3n2)CC1 [Compound 221, 4-((4-(benzyloxy)phenyl)amino)-8-bromo-2-((1-methylpiperidin-4-yl)amino)pyrido[4,3-d]pyrimidin-5(6H)-one]

- IC50 (JAK2): 1520 nM
- IC50 (FLT3 mutant D835Y): 1.6 nM
- IC50 [2]: 0.3 nM
Compound: Cc1ccc(Oc2ccc(Nc3nc(NC4CCN(C)CC4)nc4c(Br)c[nH]c(=O)c34)cc2)cc1 [Compound 225, 8-bromo-2-((1-methylpiperidin-4-yl)amino)-4-((4-(p-tolyloxy)phenyl)amino)pyrido[4,3-d]pyrimidin-5(6H)-one]

- IC50 (JAK2): 153 nM
- IC50 (FLT3 mutant D835Y): 0.3 nM
- IC50 [2]: 0.6 nM
Compound: CN1CCC(Nc2nc(Nc3ccc(OC4CCCC4)cc3)c3c(=O)[nH]cc(Br)c3n2)CC1 [Compound 223, 8-bromo-4-((4-(cyclopentyloxy)phenyl)amino)-2-((1-methylpiperidin-4-yl)amino)pyrido[4,3-d]pyrimidin-5(6H)-one]

- IC50 (JAK2): 845 nM
- IC50 ([1]; hydrochloride): 1.9 nM
- IC50 (FLT3 mutant D835Y): 0.4 nM
- inhibition of kinase activity of FLT3 mutant D835Y (in words) (FLT3 mutant D835Y): strong inhibition
- IC50 [2]: 1.4 nM
- inhibition of kinase activity of FLT3 wildtype (in words) [2]: strong inhibition
Compound: CN1CCC(Nc2nc(Nc3ccc(Oc4cccc(F)c4)cc3)c3c(=O)[nH]cc(Br)c3n2)CC1.Cl [Compound 238, 8-bromo-4-(4-(3-fluorophenoxy)phenylamino)-2-(1-methylpiperidin-4-ylamino)pyrido[4,3-d]pyrimidin-5(6H)-one hydrochloride]
- Means of Tumor Volume ([3]; day of treatment 1): 312.8 mm^3
- Means of Tumor Volume ([3]; day of treatment 4): 79.4 mm^3
- Percent Tumor Regression (PTR %) ([3]; day of treatment 4): 74.6%
- Means of Tumor Volume ([3]; day of treatment 7): 27.6 mm^3
- Percent Tumor Regression (PTR %) ([3]; day of treatment 7): 91.2%
- Means of Tumor Volume ([3]; day of treatment 11): 0 mm^3
- Percent Tumor Regression (PTR %) ([3]; day of treatment 11): 100%
- Means of Tumor Volume ([3]; day of treatment 14): 0 mm^3
- Percent Tumor Regression (PTR %) ([3]; day of treatment 14): 100%
- Means of Tumor Volume ([3]; day of treatment 17): 0 mm^3
- Percent Tumor Regression (PTR %) ([3]; day of treatment 17): 100%
- Means of Tumor Volume ([3]; day of treatment 21): 0 mm^3
- Percent Tumor Regression (PTR %) ([3]; day of treatment 21): 100%
- Means of Tumor Volume ([3]; day of treatment 25): 0 mm^3
- Percent Tumor Regression (PTR %) ([3]; day of treatment 25): 100%
- Means of Tumor Volume ([3]; day of treatment 28): 0 mm^3
- Percent Tumor Regression (PTR %) ([3]; day of treatment 28): 100%
- tumor regression (in words) ([3]; after 11 days of compound treatment): complete tumor regression

- IC50 (JAK2): 1050 nM
- IC50 ([1]; Homo sapiens, MV4-11, 72 h): 0.9 nM
- IC50 (FLT3 mutant D835Y): 0.6 nM
- IC50 [2]: 1.6 nM
Compound: CN1CCC(Nc2nc(Nc3ccc(Oc4ccc(F)c(F)c4)cc3)c3c(=O)[nH]cc(Br)c3n2)CC1 [Compound 241, 8-bromo-4-((4-(3,4-difluorophenoxy)phenyl)amino)-2-((1-methylpiperidin-4-yl)amino)pyrido[4,3-d]pyrimidin-5(6H)-one hydrochloride]

- IC50 ([1]; Homo sapiens, MV4-11, 72 h): 1.6 nM
Compound: CN1CCC(Nc2nc(Nc3ccc(OCC4CCCC4)cc3)c3c(=O)[nH]cc(Br)c3n2)CC1 [Compound 235, 8-bromo-4-((4-(cyclopentylmethoxy)phenyl)amino)-2-((1-methylpiperidin-4-yl)amino)pyrido[4,3-d]pyrimidin-5(6H)-one]

- IC50 (JAK2): 173 nM
- IC50 ([1]; Homo sapiens, MV4-11, 72 h): 1.4 nM
- IC50 (FLT3 mutant D835Y): 0.3 nM
Compound: CN1CCC(Nc2nc(Nc3ccc(OC4CCCCC4)cc3)c3c(=O)[nH]cc(Br)c3n2)CC1 [Compound 233, 8-bromo-4-((4-(cyclohexyloxy)phenyl)amino)-2-((1-methylpiperidin-4-yl)amino) pyrido[4,3-d]pyrimidin-5(6H)-one hydrochloride]
